Source: patent US11739098B2 (BRISTOL-MYERS SQUIBB COMPANY, priority 2017, dated 2023)

Columns and labels:
Format in all cases: cell-based
human TLR7 = target: T1, human TLR7 (Homo sapiens, UniProt Q9NYK1); test: TLR7 inhibition reporter assay (HEK-Blue cells, SEAP reporter, gardiquimod stimulation); conditions: HEK-Blue cells overexpressing human TLR7, SEAP reporter, gardiquimod 7.5 μM
T1 construct: host or cells: HEK-Blue cells (HEK293-derived reporter line)
T1 sequence (Q9NYK1 27-1049): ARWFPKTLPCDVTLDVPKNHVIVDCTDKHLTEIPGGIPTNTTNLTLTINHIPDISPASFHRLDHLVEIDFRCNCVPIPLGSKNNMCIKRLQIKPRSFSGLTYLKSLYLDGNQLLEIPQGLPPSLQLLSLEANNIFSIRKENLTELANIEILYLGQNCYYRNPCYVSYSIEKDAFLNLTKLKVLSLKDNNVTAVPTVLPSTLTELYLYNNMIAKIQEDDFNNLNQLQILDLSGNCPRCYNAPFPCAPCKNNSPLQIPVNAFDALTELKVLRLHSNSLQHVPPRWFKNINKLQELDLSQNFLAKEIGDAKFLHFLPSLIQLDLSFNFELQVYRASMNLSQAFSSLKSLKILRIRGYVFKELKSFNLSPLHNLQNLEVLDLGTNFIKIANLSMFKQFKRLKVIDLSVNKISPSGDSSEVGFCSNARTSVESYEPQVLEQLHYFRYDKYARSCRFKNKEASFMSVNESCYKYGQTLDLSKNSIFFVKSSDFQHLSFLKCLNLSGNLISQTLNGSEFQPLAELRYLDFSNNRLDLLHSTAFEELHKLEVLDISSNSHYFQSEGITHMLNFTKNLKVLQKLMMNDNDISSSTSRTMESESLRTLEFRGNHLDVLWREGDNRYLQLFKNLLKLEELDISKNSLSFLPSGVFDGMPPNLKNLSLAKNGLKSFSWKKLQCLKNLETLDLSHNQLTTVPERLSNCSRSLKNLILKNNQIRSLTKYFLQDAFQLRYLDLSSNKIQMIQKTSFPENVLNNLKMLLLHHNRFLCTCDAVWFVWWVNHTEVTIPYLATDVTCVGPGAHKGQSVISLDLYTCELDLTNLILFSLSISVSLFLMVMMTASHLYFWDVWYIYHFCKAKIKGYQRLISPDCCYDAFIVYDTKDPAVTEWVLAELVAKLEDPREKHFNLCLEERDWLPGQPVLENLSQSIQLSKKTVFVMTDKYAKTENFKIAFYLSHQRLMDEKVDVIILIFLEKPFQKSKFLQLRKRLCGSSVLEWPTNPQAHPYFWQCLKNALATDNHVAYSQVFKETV
Summary of the method: (§1)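 Percent inhibition of agonist-induced SEAP secretion in HEK-Blue cells after 22 h at 37 °C. Stimuli: 7.5 μM gardiquimod, 15.9 μM R848, 5 nM ODN2006 for TLR7, TLR8 and TLR9, added after 30 min compound exposure over a 0.05 nM–50 μM range.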

human TLR8 = target: T2, human TLR8 (Homo sapiens, UniProt Q9NR97); test: TLR8 inhibition reporter assay (HEK-Blue cells, SEAP reporter, R848 stimulation); conditions: HEK-Blue cells overexpressing human TLR8, SEAP reporter, R848 15.9 μM
T2 construct: host or cells: HEK-Blue cells (HEK293-derived reporter line)
T2 sequence (Q9NR97 27-1041): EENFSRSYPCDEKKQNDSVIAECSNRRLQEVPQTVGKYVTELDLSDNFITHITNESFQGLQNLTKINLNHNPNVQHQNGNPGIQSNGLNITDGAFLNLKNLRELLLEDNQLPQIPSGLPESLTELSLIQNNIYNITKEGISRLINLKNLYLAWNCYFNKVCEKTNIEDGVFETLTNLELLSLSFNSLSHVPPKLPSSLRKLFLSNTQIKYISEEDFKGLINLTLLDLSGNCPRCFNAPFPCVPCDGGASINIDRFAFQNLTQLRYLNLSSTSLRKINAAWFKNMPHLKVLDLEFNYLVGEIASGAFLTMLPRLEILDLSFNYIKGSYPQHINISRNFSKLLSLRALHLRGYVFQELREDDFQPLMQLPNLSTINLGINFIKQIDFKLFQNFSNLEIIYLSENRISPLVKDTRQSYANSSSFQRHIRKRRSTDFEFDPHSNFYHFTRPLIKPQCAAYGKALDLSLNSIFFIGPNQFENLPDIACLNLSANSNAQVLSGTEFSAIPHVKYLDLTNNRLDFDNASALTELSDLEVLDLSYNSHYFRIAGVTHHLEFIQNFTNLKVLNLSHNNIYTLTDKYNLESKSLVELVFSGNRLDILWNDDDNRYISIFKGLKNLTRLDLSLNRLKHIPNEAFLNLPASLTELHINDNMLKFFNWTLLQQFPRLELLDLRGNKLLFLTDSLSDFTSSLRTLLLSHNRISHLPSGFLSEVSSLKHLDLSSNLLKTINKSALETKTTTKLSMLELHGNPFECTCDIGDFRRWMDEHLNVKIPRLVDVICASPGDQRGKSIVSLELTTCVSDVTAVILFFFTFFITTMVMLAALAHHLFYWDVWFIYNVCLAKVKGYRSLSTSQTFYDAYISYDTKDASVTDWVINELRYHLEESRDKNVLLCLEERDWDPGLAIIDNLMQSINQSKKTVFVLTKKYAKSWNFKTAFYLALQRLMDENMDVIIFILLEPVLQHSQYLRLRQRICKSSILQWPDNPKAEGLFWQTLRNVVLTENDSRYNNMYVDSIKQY
Summary of the method: as §1

human TLR9 = target: T3, human TLR9 (Homo sapiens, UniProt Q9NR96); test: TLR9 inhibition reporter assay (HEK-Blue cells, SEAP reporter, ODN2006 stimulation); conditions: HEK-Blue cells overexpressing human TLR9, SEAP reporter, ODN2006 5 nM
T3 construct: host or cells: HEK-Blue cells (HEK293-derived reporter line)
T3 sequence (Q9NR96 26-1032): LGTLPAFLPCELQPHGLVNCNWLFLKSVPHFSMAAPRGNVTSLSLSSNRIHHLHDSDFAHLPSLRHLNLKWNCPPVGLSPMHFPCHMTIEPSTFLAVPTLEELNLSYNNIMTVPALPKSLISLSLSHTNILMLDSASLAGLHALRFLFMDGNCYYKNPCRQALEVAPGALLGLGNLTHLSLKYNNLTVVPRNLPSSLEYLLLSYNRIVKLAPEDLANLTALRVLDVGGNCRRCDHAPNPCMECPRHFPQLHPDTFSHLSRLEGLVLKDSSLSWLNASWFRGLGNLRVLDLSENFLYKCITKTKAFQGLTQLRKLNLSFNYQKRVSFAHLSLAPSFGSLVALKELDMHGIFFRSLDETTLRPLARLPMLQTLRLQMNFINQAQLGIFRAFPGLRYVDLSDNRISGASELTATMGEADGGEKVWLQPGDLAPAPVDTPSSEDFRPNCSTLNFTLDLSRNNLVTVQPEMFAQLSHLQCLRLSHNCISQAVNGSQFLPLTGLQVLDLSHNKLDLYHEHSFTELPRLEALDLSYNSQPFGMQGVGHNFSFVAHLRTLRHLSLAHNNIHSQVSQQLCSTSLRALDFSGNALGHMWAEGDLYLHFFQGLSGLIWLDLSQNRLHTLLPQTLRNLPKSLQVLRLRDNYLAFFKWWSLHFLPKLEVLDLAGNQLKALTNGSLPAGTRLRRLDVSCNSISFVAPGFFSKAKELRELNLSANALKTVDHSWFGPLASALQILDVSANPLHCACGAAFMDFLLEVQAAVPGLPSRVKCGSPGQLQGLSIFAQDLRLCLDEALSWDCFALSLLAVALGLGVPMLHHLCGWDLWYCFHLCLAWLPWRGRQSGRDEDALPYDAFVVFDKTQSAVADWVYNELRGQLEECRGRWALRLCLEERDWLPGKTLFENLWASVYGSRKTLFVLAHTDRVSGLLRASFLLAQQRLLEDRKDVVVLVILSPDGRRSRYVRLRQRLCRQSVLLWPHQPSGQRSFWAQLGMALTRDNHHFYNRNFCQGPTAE
Summary of the method: as §1

## CCc1c(-c2n[nH]c3ncccc23)[nH]c2ccc(C3CCNCC3)cc12 [Example 244, 3-(3-ethyl-5-(piperidin-4-yl)-1H-indol-2-yl)-1H-pyrazolo[3,4-b]pyridine]
Human TLR7
  IC50: 100 to 1000 nM
Human TLR8
  IC50: 100 to 1000 nM
Human TLR9
  IC50: 1000 to 50000 nM

## Cc1cc(-c2[nH]c3ccc(C4CCNCC4)cc3c2C(C)C)nn2ncnc12 [Example 30, 6-(3-isopropyl-5-(piperidin-4-yl)-1H-indol-2-yl)-8-methyl-[1,2,4]triazolo[1,5-b]pyridazine]
Human TLR7
  IC50: < 100 nM
Human TLR8
  IC50: < 100 nM
Human TLR9
  IC50: 1000 to 50000 nM

## CC(C)c1c(-c2cnc3ncnn3c2)[nH]c2ccc(C3CCN(C4COC4)CC3)cc12 [Example 721, 6-(3-isopropyl-5-(1-(oxetan-3-yl)piperidin-4-yl)-1H-indol-2-yl)-[1,2,4]triazolo[1,5-a]pyrimidine]
Human TLR7
  IC50: < 100 nM
Human TLR8
  IC50: 100 to 1000 nM
Human TLR9
  IC50: 1000 to 50000 nM

## CN(C)CC(=O)N1CCC(c2ccc3[nH]c(-c4ccn5ccnc5c4)c(CC(F)F)c3c2)CC1 [Example 571, 1-(4-(3-(2,2-difluoroethyl)-2-(imidazo[1,2-a]pyridin-7-yl)-1H-indol-5-yl)piperidin-1-yl)-2-(dimethylamino)ethan-1-one]
Human TLR7
  IC50: < 100 nM
Human TLR8
  IC50: 100 to 1000 nM
Human TLR9
  IC50: < 100 nM

## Cc1cc(-c2[nH]c3ccc(C4CCN(CC(=O)N(C)C)CC4)cc3c2C(C)C)cc2ncnn12 [Example 324, 2-(4-(3-isopropyl-2-(5-methyl-[1,2,4]triazolo[1,5-a]pyridin-7-yl)-1H-indol-5-yl)piperidin-1-yl)-N,N-dimethylacetamide]
Human TLR7
  IC50: < 100 nM
Human TLR8
  IC50: < 100 nM
Human TLR9
  IC50: 1000 to 50000 nM

## CNCC(=O)N1CCC(c2ccc3[nH]c(-c4cc(C)n5cncc5c4)c(C(C)C)c3c2)CC1 [Example 530, 1-(4-(3-isopropyl-2-(5-methylimidazo[1,5-a]pyridin-7-yl)-1H-indol-5-yl)piperidin-1-yl)-2-(methylamino)ethan-1-one]
Human TLR7
  IC50: < 100 nM
Human TLR8
  IC50: < 100 nM
Human TLR9
  IC50: 100 to 1000 nM

## Cc1nnn2ccc(-c3[nH]c4ccc(C5CCN(Cc6ncn(C)n6)CC5)cc4c3C(C)C)cc12 [Example 889, 5-(3-isopropyl-5-(1-((1-methyl-1H-1,2,4-triazol-3-yl)methyl)piperidin-4-yl)-1H-indol-2-yl)-3-methyl-[1,2,3]triazolo[1,5-a]pyridine]
Human TLR7
  IC50: < 100 nM
Human TLR8
  IC50: < 100 nM
Human TLR9
  IC50: 1000 to 50000 nM

## CC(C)c1c(-c2ccnc3[nH]ncc23)[nH]c2ccc(C3CCN(C(=O)CN4CC[C@H](N(C)C)C4)CC3)cc12 [Example 590, (S)-2-(3-(dimethylamino)pyrrolidin-1-yl)-1-(4-(3-isopropyl-2-(1H-pyrazolo [3,4-b]pyridin-4-yl)-1H-indol-5-yl)piperidin-1-yl)ethan-1-one]
Human TLR7
  IC50: < 100 nM
Human TLR8
  IC50: < 100 nM
Human TLR9
  IC50: 100 to 1000 nM

## CC(C)c1c(-c2ccnc3[nH]ncc23)[nH]c2ccc(C3CCN(Cc4ccc(N5CCN(C)CC5)cc4)CC3)cc12 [Example 919, 4-(3-isopropyl-5-(1-(4-(4-methylpiperazin-1-yl)benzyl)piperidin-4-yl)-1H-indol-2-yl)-1H-pyrazolo[3,4-b]pyridine]
Human TLR7
  IC50: < 100 nM
Human TLR8
  IC50: < 100 nM
Human TLR9
  IC50: 100 to 1000 nM

## Cc1nc[nH]c1CN1CCC(c2ccc3[nH]c(-c4ccnc5[nH]nc(C)c45)c(C(C)C)c3c2)CC1 [Example 874, 4-(3-isopropyl-5-(1-((4-methyl-1H-imidazol-5-yl)methyl)piperidin-4-yl)-1H-indol-2-yl)-3-methyl-1H-pyrazolo[3,4-b]pyridine]
Human TLR7
  IC50: < 100 nM
Human TLR8
  IC50: < 100 nM
Human TLR9
  IC50: 100 to 1000 nM

## CC(=O)N1CCCN(CC(=O)N2CCC(c3ccc4[nH]c(-c5ccnc6[nH]ncc56)c(C(C)C)c4c3)CC2)CC1 [Example 586, 2-(4-acetyl-1,4-diazepan-1-yl)-1-(4-(3-isopropyl-2-(1H-pyrazolo[3,4-b]pyridin-4-yl)-1H-indol-5-yl)piperidin-1-yl)ethan-1-one]
Human TLR7
  IC50: < 100 nM
Human TLR8
  IC50: < 100 nM
Human TLR9
  IC50: 1000 to 50000 nM

## CNC(=O)c1cnn2c(C)cc(-c3[nH]c4ccc(C5CCNCC5)cc4c3C(C)C)cc12 [Example 274, 5-(3-isopropyl-5-(piperidin-4-yl)-1H-indol-2-yl)-N,7-dimethylpyrazolo[1,5-a]pyridine-3-carboxamide]
Human TLR7
  IC50: 100 to 1000 nM
Human TLR8
  IC50: > 3130 nM
Human TLR9
  IC50: 1000 to 50000 nM

## CNCCN1CCC(c2ccc3[nH]c(-c4ccc5c(c4)OCO5)c(C)c3c2)CC1 [Example 670, 2-(4-(2-(benzo[d][1,3]dioxol-5-yl)-3-methyl-1H-indol-5-yl)piperidin-1-yl)-N-methylethan-1-amine]
Human TLR7
  IC50: 100 to 1000 nM
Human TLR8
  IC50: 100 to 1000 nM
Human TLR9
  IC50: 1000 to 50000 nM

## Cc1c(-c2ccnc3[nH]ccc23)[nH]c2ccc(C3CCN(C4CCN(C(C)C)CC4)CC3)cc12 [Example 813, 4-(5-(1′-isopropyl-[1,4′-bipiperidin]-4-yl)-3-methyl-1H-indol-2-yl)-1H-pyrrolo[2,3-b]pyridine]
Human TLR7
  IC50: < 100 nM
Human TLR8
  IC50: < 100 nM
Human TLR9
  IC50: < 100 nM
